# Test results reported in US8481284B2, “Process of preparing conjugates of allium organosulfur compounds with amino acids, peptides, and proteins” (Wisconsin Alumni Research Foundation, priority 2009, dated 2013).
# Where two headings read alike, the source gives them in different places.
# How the values were obtained:
# [1] = tested on: quinone reductase (QR) activity in Hepa 1c1c7 cells; experiment: QR (quinone reductase) induction in Hepa 1c1c7 cells; assay type: cell-based; settings: for QR induction in the presence of increasing exogenous GSH: 31 μg/ml conjugate, increasing exogenous GSH in medium; for QR induction at a single dose: 31 μg/ml; for QR induction at a single dose / EC (2-fold QR induction): Hepa 1c1c7 cells; for EC (2-fold QR induction): read-out: CD values (dose where there was a doubling of QR)
# Method: Specifically, the mixed disulfide conjugates as prepared similar to the pure conjugates of Example 10 or purified from mixtures prepared in Example 11 were used with the Hepa 1c1c7 cell line as disclosed in Prochaska, et al., 1992. Each conjugate was tested over a dose range and increases in quinone reductase (QR) activity was used as a biomarker for phase II enzyme induction, an established mechanism of cancer chemoprotection. […] Results were considered valid as long as cell viability in the assay was >50% as recommended by the established protocol. Typical experimental results are shown for the CySSPe conjugate (FIG. 11), and summary results are provided for all conjugates in terms of relative potency (CD values) for QR induction (Table 8).
# (§1) Generally, redox modulation and thiol upregulation is considered a defense mechanism to pathological processes in cells. These mechanisms were analyzed in the mixed disulfide conjugates in both Hepa 1c1c7 and RAW 264.7 macrophage cell lines. Evidence of redox modulation was obtained in terms of 1) attenuation of QR inducing activity with increasing reducing capacity of cells through exogenous GSH addition, 2) increases in cellular glutathione (GSH) and 3) export/enrichment of thiols in the extracellular fluid.
# [2] = tested on: nitric oxide (NO) in lipopolysaccharide-activated macrophages (RAW 264.7); experiment: Inhibition of NO evolution in lipopolysaccharide-activated macrophages (RAW 264.7), Griess reagent; assay type: cell-based, murine; settings: Mus musculus, RAW264.7; for IC50: LPS 1 μg/ml, 24 hour incubation; for inhibition at 125 µg/mL: at 125 μg/ml, the highest level tested
# Method: Each conjugate was tested over a dose range and the evolution of NO over the 24 hour incubation period was measured as […] by the Griess reagent using established protocols ([…] et al., 1996). The dose where a 50% inhibition of NO evolution occurred (IC50) relative to the control cells without added conjugate was estimated by sigmoidal curve-fitting as a relative measure of anti-inflammatory activity, with lower IC50 values representing greater potency. […] Typical experimental results are shown for the GSSPe conjugate (FIG. 12), and summary results are provided for all conjugates in terms of relative potency (IC50 values) for NO inhibition (Table 9).
# [3] = tested on: RAW 264.7 cells; experiment: Thiol export (extracellular thiols, DTNB) by macrophages; assay type: cell-based, murine; settings: compared with other species or control cells
# Method: FIG. 15 depicts the extracellular thiol concentrations of RAW 264.7 cells treated with CySSR and 5,5′-dithio-bis(2-nitrobenzoic acid) (DTNB) as analyzed in Example 31.
# as §1
# Specifically, CySSR as prepared in Example 11 was added to macrophages. Thiol export by the macrophages was then analyzed. All CySSR species tested at 31 μg/ml induced thiol export by macrophages by as much as 20-35 times level observed for untreated control cells. Thiols were measured by Ellman's reagent (DTNB). […] Cellular exporting of thiols represents another mechanism by which cells respond to oxidative stress by exporting reducing equivalents to restore extracellular redox homeostasis.
# [4] = tested on: intracellular GSH in Hepa 1c1c7 cells; experiment: Intracellular GSH content of Hepa 1c1c7 cells after conjugate addition; assay type: cell-based; settings: over the first 10 hours
# Method: Another related consequence of adding the conjugates to the cells was an increase in cellular GSH. This response is considered to be a general antioxidant defense as well as one that provides specific protection to cancer (Kim et al., 2009) and was assessed in the next Example.
# Specifically, GSSP was prepared similar to the GSSR conjugates in Example 11 and added to Hepa 1c1c7 cells. The changes in intracellular GSH content was measured after lysis of the cells at pre-determined intervals after addition of the GSSP conjugate.
# [5] = molar equivalent of the μg/ml value
SMILES,QR induction in the presence of increasing exogenous GSH [1],QR induction at a single dose [1],EC (2-fold QR induction) ([1]; cell viability >50%),"EC (2-fold QR induction) [1, 5]",IC50 ([2]; cell viability ≧80%),"IC50 [2, 5]","thiol efflux / extracellular thiols, in words [3]",inhibition at 125 µg/mL [2],elevation of intracellular GSH over control [4]
"C=CCSSC[C@@H](N)C(=O)O [CySSA, S-allyl-L-mercaptocysteine]",progressively attenuated,nearly a doubling of QR,26 µg/mL,130 µM,9 µg/mL,47 µM,,,
"CCSSC[C@@H](N)C(=O)O [CySSE, S-ethyl-L-mercaptocysteine]",,,76 µg/mL,420 µM,102 µg/mL,560 µM,,,
"CSSC[C@@H](N)C(=O)O [CySSM, S-methyl-L-mercaptocysteine]",,,89 µg/mL,530 µM,48 µg/mL,290 µM,,,
"CCCSSC[C@@H](N)C(=O)O [CySSP, S-propyl-L-mercaptocysteine]",,,92 µg/mL,470 µM,63 µg/mL,320 µM,,,
"C/C=C/SSC[C@@H](N)C(=O)O [CySSPe, S-1-propenyl-L-mercaptocysteine]",,,4.8 µg/mL,25 µM,21 µg/mL,110 µM,about half as much thiol efflux as the others,,
"C=CCSSC[C@H](NC(=O)CC[C@H](N)C(=O)O)C(=O)NCC(=O)O [GSSA, S-2-propenyl-L-mercaptoglutathione]",progressively attenuated,nearly a doubling of QR,33 µg/mL,87 µM,87 µg/mL,230 µM,,,
"CCSSC[C@H](NC(=O)CC[C@H](N)C(=O)O)C(=O)NCC(=O)O [GSSE, S-ethyl-L-mercaptoglutathione]",,,72 µg/mL,200 µM,,,,25%,
"CSSC[C@H](NC(=O)CC[C@H](N)C(=O)O)C(=O)NCC(=O)O [GSSM, S-methlyl-L-mercaptoglutathione]",,,87 µg/mL,250 µM,,,,26%,
"CCCSSC[C@H](NC(=O)CC[C@H](N)C(=O)O)C(=O)NCC(=O)O [GSSP, S-propyl-L-mercaptoglutathione]",,,73 µg/mL,190 µM,,,,34%,50-70%
"C/C=C/SSC[C@H](NC(=O)CC[C@H](N)C(=O)O)C(=O)NCC(=O)O [GSSPe, S-1-propenyl-L-mercaptoglutathione]",,,5.3 µg/mL,14 µM,4.6 µg/mL,16 µM,,,
